Data published in patent publication US20260150798A1, “METHODS AND COMPOSITIONS FOR IMPROVED PLANT REGENERATION FROM MICROSPORE-DERIVED EMBRYOS” (Monsanto Technology LLC, priority 2022, published 2026).
Entries after “also recorded” stand apart in the source; their conditions may differ.

System: microspore-derived embryos from 10 proprietary canola lines
Assay: Culture-free maturation and regeneration of microspore-derived embryos in soil, canola
Type: in vivo
Settings: 5 mg/L added to MDE Maturation Medium, about 1 to about 24 hours before transfer to soil
Protocol: The optimal time to dilute the microspore-derived embryos to a concentration of about 200 to about 400 embryos per plate containing 15 mL medium is about 15 days to about 20 days after the beginning microspore culture initiation (days after culture) (DAC). At this stage, the embryos are green, individually distinguishable with the naked eye, and the majority are in the torpedo stage of development. During the dilution step the embryogenesis induction medium (NLN13) is replaced with MDE Maturation Medium. The microspore-derived embryos were diluted by transferring about 200 to about 400 embryos to a new plate containing 15 mL of MDE Maturation Medium. If the original plates have a starting concentration of about 200 embryos per plate or less, then the media of the original plate is replaced with MDE Maturation Medium without embryo dilution. Following dilution and/or media replacement, plates were returned to 100 μmol fluorescent light for a 16 hour photoperiod, 25° C. day and night with an orbital shaker set to 60 RPM, and cultured to about 28 to about 30 DAC to reach a matured cotyledon stage before transferring to a solid regeneration medium. […] Regeneration rate was measured after 28 days of incubation. Microspore-derived embryos from 10 proprietary canola lines were analyzed in a series of protocols to identify optimized conditions for culture-free maturation and regeneration. […]

O=C(O)CCCc1c[nH]c2ccccc12 [IBA, indole-3-butyric acid]
effect on rooting, plantlet survival and establishment in soil: accelerates rooting and increases plantlet survival and establishment in soil; also recorded: improves rooting
